Data from patent publication EP1021444B1, “3-CARBOXAMIDE DERIVATIVES OF 5H-PYRROLO[2,1-c][1,4]-BENZODIAZEPINES” (Wyeth, priority 1996, dated 1998).
Where a name gives a salt, the structure may show the parent alone. Read-outs that look alike come from different tables or passages of the source.

What was measured:
[1] = target: T1, Human V2 Vasopressin Receptor (Homo sapiens, UniProt P30518); assay: Binding to membranes of mouse fibroblast cell line (LV-2) transfected with the cDNA expressing the human V2 vasopressin receptor
T1 construct: expressed in transfected cells; host or cells: mouse fibroblast cell line LV-2 (membrane preparation)
T1 sequence (P30518 whole entry): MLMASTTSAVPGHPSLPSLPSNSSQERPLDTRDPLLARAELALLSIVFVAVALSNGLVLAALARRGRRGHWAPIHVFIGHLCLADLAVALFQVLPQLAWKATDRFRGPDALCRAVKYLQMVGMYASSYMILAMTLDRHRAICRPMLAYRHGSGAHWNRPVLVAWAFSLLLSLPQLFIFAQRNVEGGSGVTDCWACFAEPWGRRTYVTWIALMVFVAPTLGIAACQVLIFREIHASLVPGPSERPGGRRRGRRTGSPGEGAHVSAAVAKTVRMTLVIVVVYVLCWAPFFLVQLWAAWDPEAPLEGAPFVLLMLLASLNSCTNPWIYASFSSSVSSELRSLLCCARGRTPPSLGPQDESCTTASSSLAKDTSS
Procedure: Binding to Membranes of Mouse Fibroblast Cell Line (LV-2) Transfected with the cDNA Expressing the Human V2 Vasopressin Receptor
Flasks of 175 ml capacity, containing attached cells grown to confluence, are cleared of culture medium by aspiration. The flasks containing the attached cells are rinsed with 2x5 ml of phosphate buffered saline (PBS) and the liquid aspirated off each time. Finally, 5 ml of an enzyme free dissociation Hank's based solution (Specialty Media, Inc., Lafayette, NJ) is added and the flasks are left undisturbed for 2 min. The content of all flasks is poured into a centrifuge tube and the cells pelleted at 300 x g for 15 min. […] The homogenate is centrifuged at 1500 x g for 10 min to remove ghost membranes. The supernatant fluid is centrifuged at 100,000 x g for 60 min to pellet the receptor protein. Upon completion, the pellet is resuspended in a small volume of 50.0 mM Tris.HCl buffer, pH 7.4. The protein content is determined by the Lowry method and the receptor membranes are suspended in 50.0 mM Tris.HCl buffer containing 0.1 mM phenylmethylsulfonylfluoride (PMSF) and 0.2% bovine serum albumin (BSA) to give 2.5 mg receptor protein per ml of suspension.
For binding experiments, the following is added in ml volume to wells of a 96 well format of a microtiter plate: 100.0 ml of 100.0 mM Tris.HCl buffer containing 0.2% heat inactivated BSA, 10.0 mM MgCl2 and a mixture of protease inhibitors: leupeptin, 1.0 mg %; aprotinin, 1.0 mg %; 1,10-phenanthroline, 2.0 mg %; trypsin inhibitor, 10.0 mg % and 0.1 mM PMSF, 20.0 ml of [^3H] Arginine^8, vasopressin (S.A. 75.0 Ci/mmole) at 0.8 nM and the reaction initiated by the addition of 80.0 ml of tissue membranes (200.0 mg tissue protein). The plates are left undisturbed on the bench top for 120 min to reach equilibrium. Non specific binding is assessed in the presence of 1.0 mM of unlabeled ligand, added in 20 ml volume. For test compounds, these are solubilized in 50% dimethylsulfoxide (DMSO) and added in 20.0 ml volume to a final incubation volume of […]. Upon completion of binding, the content of each well is filtered off, using a Brandel® cell Harvester (Gaithersburg, MD). The radioactivity trapped on the filter disk by the ligand-receptor complex is assessed by liquid scintillation counting in a Packard LS Counter, with an efficiency of 65% for tritium. The data are analyzed for IC50 values by the LUNDON-2 program for competition (LUNDON SOFTWARE, OH).

[2] = tested on: Endogenous Arginine Vasopressin Antidiuretic (V2) Response; assay: Antagonism of endogenous arginine vasopressin antidiuretic (V2) response in conscious rats (urine volume); assay type: in vivo, Sprague-Dawley rats; settings: 10 mg/kg rat p.o.; urine collected for four hours after dosing; no water or food during test
Excerpt: Effects on the Antagonism of Endogenous Arginine Vasopressin Antidiuretic (V2) Response in Conscious Rats with Free Access to Water Drinking Before but not During the Experiment:
Male or female normotensive Sprague-Dawley rats (Charles River Laboratories, Inc., Kingston, NY) of 400-450 g body weight were supplied with Laboratory Rodent Feed #5001 (PMI Feeds, Inc., Richmond, IN) and water ad libitum. On the day of test, rats were placed individually into metabolic cages equipped with stainless steel screens (to separate the feces from the urine) and funnels for collection of urine. Vehicle or reference agent was given at various oral doses. During the test, rats were not provided with water or food. Urine was collected for four hours after dosing of the test compound. At the end of four hours, urine volume was measured. Urinary osmolality was determined using a Fiske One-Ten Osmometer (Fiske Associates, Norwood, MA, 02062). or an Advanced CRYOMATIC Osmometer, Model 3C2 (Advanced Instruments, Norwood, MA). Determinations of Na^+, K^+ and Cl^- ion were carried out using ion specific electrodes in a Beckman SYNCHRON EL-ISE Electrolyte System analyzer. In the following results, increased urine volume and decreased osmolality relative to AVP-control indicates activity.

[3] = read-out: Vasopressin Human V2 Receptor Binding

SMILES | IC50 [1] [nM] | Urine Volume (ml/4 hrs) [2] [ml/4 hrs] | IC50 [1, 3] [nM]
O=C(Nc1ccc(C(=O)N2Cc3ccc(C(=O)C(Cl)(Cl)Cl)n3Cc3ccccc32)c(Cl)c1)c1ccccc1-c1ccccc1 [Example 6] | 5.6 | – | –
CN(C)C1CCN(C(=O)c2ccc3n2Cc2ccccc2N(C(=O)c2ccc(NC(=O)c4ccccc4-c4ccccc4)cc2Cl)C3)CC1 [Example 12, Biphenyl-2-carboxylic acid{3-chloro-4-[3-(4-dimethylamino-piperidine-1-carbonyl)-5H,11H-pyrrolo[2,1-c][1,4]benzodiazepine-10-carbonyl]-phenyl}-amide.] | – | 21.4 | –
O=C(O)CNC(=O)c1ccc2n1Cc1ccccc1N(C(=O)c1ccc(NC(=O)c3ccccc3-c3ccccc3)cc1Cl)C2 [Example 18, 10-{4-[(Biphenyl-2-carbonyl)-amino]-2-chloro-benzoyl}-10,11-dihydro-5H-pyrrolo[2,1-c][1,4]benzodiazepine-3-carboxylic acid (glycyl)-amide] | 7.6 | 7.8 | –
CN1CCN(NC(=O)c2ccc3n2Cc2ccccc2N(C(=O)c2ccc(NC(=O)c4ccccc4-c4ccccc4)cc2Cl)C3)CC1 [Example 13, Biphenyl-2-carboxylic acid{3-chloro-4-[3-(4-methyl-piperazine-1 aminocarbonyl)-5H,11H-pyrrolo[2,1-c][1,4]benzodiazepine-10-carbonyl]-phenyl}-amide.] | – | 16.8 | –
CN(C)CCNC(=O)c1ccc2n1Cc1ccccc1N(C(=O)c1ccc(NC(=O)c3ccccc3-c3ccccc3)cc1Cl)C2 [Example 14, 10-{4-[(Biphenyl-2-carbonyl)-amino]-2-chloro-benzoyl}-10,11-dihydro-5H-pyrrolo[2,1-c][1,4]benzodiazepine-3-carboxylic acid (2-dimethylamino-ethyl) -amide] | – | 11.3 | –
COc1cc(NC(=O)c2ccccc2-c2ccccc2)ccc1C(=O)N1Cc2ccc(C(=O)NN(C)C)n2Cc2ccccc21 [Example 17] | – | 9.4 | –
Cc1ccc(F)cc1C(=O)Nc1ccc(C(=O)N2Cc3ccc(C(=O)O)n3Cc3ccccc32)c(Cl)c1 [Example 1, 10-[2-Chloro-4-(5-fluoro-2-methyl-benzoylamino)-benzoyl]-10,11-dihydro-5H-pyrrolo[2,1-c][1,4]benzodiazepine-3-carboxylic acid] | – | 13.2 | 14
COc1cc(NC(=O)c2ccccc2-c2ccccc2)ccc1C(=O)N1Cc2ccc(C(=O)N3CCN(C)CC3)n2Cc2ccccc21 [Example 16] | – | 24.3 | –
Cc1ccc(F)cc1C(=O)Nc1ccc(C(=O)N2Cc3ccc(C(=O)[O-])n3Cc3ccccc32)c(Cl)c1.[K+] [Example 2, 10-[2-Chloro-4-(5-fluoro-2-methyl-benzoylamino)-benzoyl]-10,11-dihydro-5H-pyrrolo[2,1-c][1,4]benzodiazepine-3-carboxylic acid, potassium salt (1:1)] | – | 11.5 | –
CN(C)NC(=O)c1ccc2n1Cc1ccccc1N(C(=O)c1ccc(NC(=O)c3ccccc3-c3ccccc3)cc1Cl)C2 [Example 8] | 8.6 | 40.9 | –
O=C(Nc1ccc(C(=O)N2Cc3ccc(C(=O)O)n3Cc3ccccc32)c(Cl)c1)c1ccccc1-c1ccccc1 [Example 7, 10-{4-[(Bipheny-2-carbonyl)-amino]-2-chloro-benzoyl)-10,11-dihydro-5H-benzo[e]pyrrolo[1,2-a][1,4] diazepine-3-carboxylic acid] | – | 19.2 | –
O=C(Nc1ccc(C(=O)N2Cc3ccc(C(=O)N4CCC(N5CCCCC5)CC4)n3Cc3ccccc32)c(Cl)c1)c1ccccc1-c1ccccc1 [Example 11, Biphenyl-2-carboxylic acid{3-chloro-4-[3-(4-piperidinyl-piperidine-1-carbonyl)-5H,11H-pyrrolo[2,1-c][1,4]benzodiazepine-10-carbonyl]-phenyl}-amide.] | 9.3 | – | –
CN(C)CCN(C)C(=O)c1ccc2n1Cc1ccccc1N(C(=O)c1ccc(NC(=O)c3ccccc3-c3ccccc3)cc1Cl)C2 [Example 10, 10-{4-[(Biphenyl-2-carbonyl)-amino]-2-chloro-benzoyl}-10,11-dihydro-5H-pyrrolo[2,1-c][1,4]benzodiazepine-3-carboxylic acid (2-dimethylamino-ethyl)-methyl-amide] | – | 22.2 | 5.5
Cc1ccc(F)cc1C(=O)Nc1ccc(C(=O)N2Cc3ccc(C(=O)NN(C)C)n3Cc3ccccc32)c(Cl)c1 [Example 3, N-{3-Chloro-4-[3-(N', N'-dimethyl-hydrazinocarbonyl)-5H,11H-pyrrolo[2,1-c][1,4]benzodiazepine-10-carbonyl]-phenyl}-5-fluoro-2-methyl-benzamide] | – | 22 | 15
Cc1ccc(F)cc1C(=O)Nc1ccc(C(=O)N2Cc3ccc(C(=O)[N-][N+](C)(C)C)n3Cc3ccccc32)c(Cl)c1 [Example 5, 2-[[10-[2-Chloro-4-[(5-fluoro-2-methylbenzoyl)amino]benzoyl]-10,11-dihydro-5H-pyrrolo[2,1-c][1,4]benzodiazepin-3-yl]hydroxymethylene]-1,1,1-trimethylhydrazinium inner salt] | 60 | 9.1 | –
O=C(Nc1ccc(C(=O)N2Cc3ccc(C(=O)N4CCC(N5CCOCC5)CC4)n3Cc3ccccc32)c(Cl)c1)c1ccccc1-c1ccccc1 [Example 15, Biphenyl-2-carboxylic acid{3-chloro-4-[3-(4-morpholino-piperidine-1-carbonyl)-5H,11H-pyrrolo[2,1-c][1,4]benzodiazepine-10-carbonyl]-phenyl}-amide.] | 10.7 | – | –
Cc1ccc(F)cc1C(=O)Nc1ccc(C(=O)N2Cc3ccc(C(=O)N[N+](C)(C)C)n3Cc3ccccc32)c(Cl)c1 [Example 4, 2-[[10-[2-Chloro-4-[(5-fluoro-2-methylbenzoyl)amino]benzoyl]-10,11-dihdro-5H-pyrrolo{2,1-c][1,4]benzodiazepin-3-yl]carbonyl]-1,1,1-trimethylhydrazinium iodide] | 60 | 9.2 | –
